Measured values reported in patent publication US8029770B2 (Rutgers, The State University, priority 2003, dated 2011).
“Also recorded” adds a separate entry of the source. Where two headings read alike, the source gives them in different places. Marks after values point to notes of the source that are not given here.

How the values were obtained:
[1] = test system: UVB-induced skin tumors in tumor-bearing SKH-1 mice; assay: Growth of UVB-induced skin tumors in tumor-bearing SKH-1 mice; assay type: in vivo, mouse
Description: Female SKH-1 mice (7 to 8 weeks old) were treated with 30 mJ/cm^2 of UVB twice a week for 20 weeks. The UVB was stopped for 24 weeks. These tumor-bearing animals were divided into 2 groups (19 mice per group). […] The number (FIG. 1A) and size (FIG. 1B) of the tumors were recorded every 2 weeks.
The radius (r) was determined, and the volume was calculated by: volume=4πr^3/3.
Female SKH-1 mice were treated with 30 mJ/cm^2 of UVB twice a week for 20 weeks and UVB were stopped for 24 weeks. The resulting tumor-bearing animals were divided into 2 groups (19 mice per group). […] The number and size of the tumors were recorded every 2 weeks.

[2] = test system: UVB-induced skin lesions in SKH-1 mice; assay: Prevention of UVB-induced skin (sunburn) lesions, sunscreen effect; assay type: in vivo, mouse; details: 4.8% caffeine or 8.0% caffeine sodium benzoate (24 μmoles) in 100 mg DERMABASE 30 minutes before UVB 180 mJ/cm^2 on two consecutive days (FIG. 2)
Description: The areas (mm^2) and the intensity of red color in UVB-induced skin lesion were estimated semi-quantitatively 5 days after first UVB treatment. The lesion index were calculated as the lesion area multiplied by the arbitrary intensity: 0, no lesion; 1 barely detectable red lesion; 2 moderate red lesion, and 3, bright red lesion.
Outdoor occupational human exposure to UVB or a sunbathing exposure in the summer has been reported to range from 50-100 mJ/cm^2 per day (Larko, et al. (1983) Clin. Exp. Dermatol. 8:279-285; Diffey (1991) Phys. Med. Biol. 36:299-328).

[3] = test system: UVB-induced skin tumors in high risk SKH-1 mice
phospho-Chk2 (Ser387) = assay: Epidermal phospho-Chk2 (Ser387) in UVB-treated mice, western blot; assay type: in vivo, mouse; details: topical immediately after UVB 30 mJ/cm2; 6 hours
[4] = test system: apoptotic sunburn cells in the epidermis of SKH-1 mice; assay: UVB-induced apoptotic sunburn cells in the epidermis of SKH-1 mice after topical application; assay type: in vivo, mouse; details: for Percent Apoptotic Sunburn Cells, Non-UVB Treated: no UVB
Description: Chemicals and Animals. […] Female SKH-1 hairless mice (6 to 7 weeks old) were purchased from the Charles River Breeding Laboratories, and the animals were kept in an animal facility for at least one week before use at 7 to 8 weeks of age. Mice were given water and PURINA® Laboratory CHOW® 5001 diet from Ralston-Purina (St. […] For the analysis conducted herein, 5 mice were used per group. Treatment of Mice with UVB. […] The radiation was further calibrated with a model IL-1700 research radiometer/photometer (International Light, Newburyport, Mass.). Measurement of apoptotic sunburn cells. Identification of apoptoic sunburn cells was based morphologically on cell shrinkage and nuclear condensation due to fragmentation of the cells. […] Six hours after UVB, the animals were sacrificed and apoptotic sunburn cells in the epidermis were determined morphologically. […] Six hours after UVB, the animals were sacrificed and apoptotic sunburn cells in the epidermis were determined morphologically. […] Acetone Formulation. […] Six hours after UVB, the animals were sacrificed and apoptotic sunburn cells in the epidermis were determined morphologically. […] […] Formulations. […] Six hours after UVB the animals were sacrificed and apoptotic sunburn cells in the epidermis were determined morphologically. […] Six hours after UVB the animals were sacrificed and apoptotic sunburn cells in the epidermis were determined morphologically.

cyclin B1 = assay: Epidermal cyclin B1 in UVB-treated mice, western blot and immunohistochemistry; assay type: in vivo, mouse
[5] = Weight of mouse during topical treatment of UVB-pretreated high risk SKH-1 mice; assay type: in vivo
Description: Female SKH-1 mice were treated with 30 mJ/cm^2 of UVB twice a week for 20 weeks.

[6] = 4% in 100 mg DERMABASE once a day 5 days a week, 8 weeks (FIG. 1)

## Cn1c(=O)c2c(ncn2C)n(C)c1=O.O=C([O-])c1ccccc1.[Na+] [Caffeine Sodium Benzoate, caffeine sodium benzoate]
[1]; [6]
  reduction in the number of tumors that developed per mouse vs DERMABASE: 2 fold
  reduction in tumor volume per mouse vs DERMABASE: ~3 fold
[1]; 4% in 100 mg DERMABASE, 8 weeks (FIG. 1A, 1B)
  number and size of tumors: significantly reduced
[2]
  formation of UVB-induced sunburn (skin) lesions: significantly prevented skin lesion formation; also recorded: inhibited the formation of sunburn lesions; also recorded: even more dramatic inhibitory effect
[3]; week 0, 2% CSB in DERMABASE
  No. of large tumors (diameter > 5 mm): 0
  Tumor volume per mouse (all mice) (mm^3): 0 mm^3
  Tumor volume per tumor (mm^3): 0 mm^3
  Tumors per mouse: 0
[3]; week 0, 6% CSB in DERMABASE
  No. of large tumors (diameter > 5 mm): 0
  Tumor volume per mouse (all mice) (mm^3): 0 mm^3
  Tumor volume per tumor (mm^3): 0 mm^3
  Tumors per mouse: 0
[3]; week 5, 2% CSB in DERMABASE
  No. of large tumors (diameter > 5 mm): 0
  Tumor volume per mouse (all mice) (mm^3): 0.1 ± 0.1 mm^3
  Tumor volume per tumor (mm^3): 0.5 ± 0.0 mm^3
  Tumors per mouse: 0.2 ± 0.1
[3]; week 5, 6% CSB in DERMABASE
  No. of large tumors (diameter > 5 mm): 0
  Tumor volume per mouse (all mice) (mm^3): 0.0 ± 0.0 mm^3
  Tumor volume per tumor (mm^3): 0.5 ± 0.0 mm^3
  Tumors per mouse: 0.0 ± 0.0
[3]; week 7, 2% CSB in DERMABASE
  No. of large tumors (diameter > 5 mm): 0
  Tumor volume per mouse (all mice) (mm^3): 0.6 ± 0.4 mm^3
  Tumor volume per tumor (mm^3): 1.5 ± 0.5 mm^3
  Tumors per mouse: 0.4 ± 0.2
[3]; week 7, 6% CSB in DERMABASE
  No. of large tumors (diameter > 5 mm): 0
  Tumor volume per mouse (all mice) (mm^3): 0.1 ± 0.1 mm^3
  Tumor volume per tumor (mm^3): 0.5 ± 0.0 mm^3
  Tumors per mouse: 0.2 ± 0.1
[3]; week 9, 2% CSB in DERMABASE
  No. of large tumors (diameter > 5 mm): 0
  Tumor volume per mouse (all mice) (mm^3): 1.0 ± 0.5 mm^3
  Tumor volume per tumor (mm^3): 1.9 ± 0.9 mm^3
  Tumors per mouse: 0.5 ± 0.2
[3]; week 9, 6% CSB in DERMABASE
  No. of large tumors (diameter > 5 mm): 0
  Tumor volume per mouse (all mice) (mm^3): 0.3 ± 0.2 mm^3
  Tumor volume per tumor (mm^3): 0.9 ± 0.4 mm^3
  Tumors per mouse: 0.3 ± 0.1
[3]; week 11, 2% CSB in DERMABASE
  No. of large tumors (diameter > 5 mm): 0
  Tumor volume per mouse (all mice) (mm^3): 1.8 ± 0.2 mm^3
  Tumor volume per tumor (mm^3): 2.1 ± 0.6 mm^3
  Tumors per mouse: 0.9 ± 0.3
[3]; week 11, 6% CSB in DERMABASE
  No. of large tumors (diameter > 5 mm): 0
  Tumor volume per mouse (all mice) (mm^3): 1.0 ± 0.4 mm^3
  Tumor volume per tumor (mm^3): 2.0 ± 0.5 mm^3
  Tumors per mouse: 0.5 ± 0.2
phospho-Chk2 (Ser387)
  UVB-induced increase in the level of phospho-Chk2 (Ser387): inhibited
[4]; 6.2 μmole (each) in 100 μL acetone:water (9:1) immediately after UVB 30 mJ/cm^2 and at 30 and 120 min, 6 h, mean ± S.E.
  Percent Sunburn Cells, UVB: 1.10 ± 0.10%
[4]; 6.2 μmole in 100 μL acetone right after UVB 30 mJ/cm^2 and at 30 and 120 min, 6 h after UVB, mean ± S.E.
  Percent Apoptotic Sunburn Cells: 1.089 ± 0.080^a %
[4]; 100 mg formulation (2.4% caffeine or 4.0% caffeine sodium benzoate, 12.4 μmole, in DERMABASE; or commercial product) immediately after UVB 30 mJ/cm^2, 6 h
  Percent Sunburn Cells, UVB: 2.33 ± 0.36^a %
[4]; 1.0% CSB in 100 mg DERMABASE immediately after UVB 30 mJ/cm^2, 6 h
  Percent Sunburn Cells, UVB: 0.74 ± 0.20^a %
[4]; 2.0% CSB in 100 mg DERMABASE immediately after UVB 30 mJ/cm^2, 6 h
  Percent Sunburn Cells, UVB: 0.99 ± 0.20^a %
[4]; 4.0% CSB in 100 mg DERMABASE immediately after UVB 30 mJ/cm^2, 6 h
  Percent Sunburn Cells, UVB: 1.22 ± 0.19^a %
[4]; 6.0% CSB in 100 mg DERMABASE immediately after UVB 30 mJ/cm^2, 6 h
  Percent Sunburn Cells, UVB: 1.67 ± 0.31^a %
[4]; 8.0% CSB in 100 mg DERMABASE immediately after UVB 30 mJ/cm^2, 6 h
  Percent Sunburn Cells, UVB: 1.75 ± 0.32^a %
[4]; DERMABASE vehicle, equimolar amounts (Table 4)
  enhancement of UVB-induced apoptosis in the epidermis, applied in DERMABASE: to a greater extent than equimolar amounts of caffeine
[4]; Exp-1, 6.2 μmole in acetone:water (9:1) x3 after UVB 30 mJ/cm^2, 6 h
  Percent Apoptotic Sunburn Cells: 1.09 ± 0.08%
[4]; Exp-2, 3.1 μmole in acetone:water (9:1) x3 after UVB 30 mJ/cm^2, 6 h
  Percent Apoptotic Sunburn Cells: 0.45 ± 0.07%
[4]; Exp-2, 3.1 μmole
  Percent Apoptotic Sunburn Cells, Non-UVB Treated: 0.02 ± 0.01%
[4]; Exp-2, 6.2 μmole in acetone:water (9:1) x3 after UVB 30 mJ/cm^2, 6 h
  Percent Apoptotic Sunburn Cells: 0.68 ± 0.06%
[4]; Exp-2, 6.2 μmole
  Percent Apoptotic Sunburn Cells, Non-UVB Treated: 0.03 ± 0.01%
[4]; Table 1, vs acetone group, 6.2 μmole x3 after UVB 30 mJ/cm^2, 6 h
  % Induction: 434%
[4]; Table 3 Exp-1, 6.2 μmole
  % Induction: 445%
[4]; Table 3 Exp-2, 3.1 μmole
  % Induction: 114%
[4]; Table 3 Exp-2, 6.2 μmole
  % Induction: 224%
[4]; Table 4, 1.0% CSB in DERMABASE
  % Induction: 270%
[4]; Table 4, 2.0% CSB in DERMABASE
  % Induction: 395%
[4]; Table 4, 4.0% CSB in DERMABASE
  % Induction: 510%
[4]; Table 4, 6.0% CSB in DERMABASE
  % Induction: 735%
[4]; Table 4, 8.0% CSB in DERMABASE
  % Induction: 775%
[4]; no UVB (Table 3)
  effect on non-UVB-treated cells: unaffected
Cyclin B1; UVB-treated mice, frozen sections, immunohistochemical
  percent of cyclin B1 positive cells in the epidermis: substantially enhanced
Cyclin B1; no UVB
  effect on cyclin B1 positive cells in the absence of UVB: little or no effect
Cyclin B1; topical immediately after UVB 30 mJ/cm2, western blot
  level of epidermal cyclin B1 vs UVB alone: increased substantially
[5]; week 0, 2% CSB in DERMABASE
  Weight of mouse: 30.5 ± 0.5 g
[5]; week 0, 6% CSB in DERMABASE
  Weight of mouse: 30.4 ± 0.6 g
[5]; week 5, 2% CSB in DERMABASE
  Weight of mouse: 30.3 ± 0.4 g
[5]; week 5, 6% CSB in DERMABASE
  Weight of mouse: 29.9 ± 0.5 g
[5]; week 7, 2% CSB in DERMABASE
  Weight of mouse: 30.6 ± 0.4 g
[5]; week 7, 6% CSB in DERMABASE
  Weight of mouse: 29.8 ± 0.5 g
[5]; week 9, 2% CSB in DERMABASE
  Weight of mouse: 30.6 ± 0.4 g
[5]; week 9, 6% CSB in DERMABASE
  Weight of mouse: 30.0 ± 0.5 g
[5]; week 11, 2% CSB in DERMABASE
  Weight of mouse: 30.7 ± 0.5 g
[5]; week 11, 6% CSB in DERMABASE
  Weight of mouse: 30.2 ± 0.5 g
